{"source": "patent US6331287A", "about": "“2'-deoxy-2'-fluoro-d-arabinofuranosyl pyrimidine nucleoside” (University Advanced Bio-imaging Associates, priority 1998, dated 2001)", "key": {"[1]": {"conditions": "cited from earlier work"}, "[2]": {"conditions": "dogs, cited from earlier work"}, "[3]": {"conditions": "patients, Phase I; cited from earlier work"}, "thymidine incorporation": {"tested_on": "thymidine incorporation", "conditions": "read-out: ED50 for inhibition of thymidine incorporation; cited from earlier work"}, "[4]": {"conditions": "dogs; cited from earlier work"}, "mammalian kinases": {"tested_on": "mammalian kinases", "conditions": "relative to thymidine, cell culture systems; cited from earlier work"}, "viral kinases": {"tested_on": "viral kinases", "conditions": "relative to thymidine, cell culture systems; cited from earlier work"}, "[5]": {"conditions": "mice, cited from earlier work"}, "[6]": {"tested_on": "organs with rapidly dividing cells such as the small intestine and spleen", "conditions": "rats; cited from earlier work"}, "[7]": {"conditions": "rats, cited from earlier work"}, "PC12 cells": {"tested_on": "PC12 cells", "conditions": "in culture; cited from earlier work"}, "host DNA": {"tested_on": "host DNA", "conditions": "cited from earlier work"}, "Vero cells": {"tested_on": "Vero cells", "conditions": "in culture; cited from earlier work"}, "[8]": {"tested_on": "brain tumor (gliosarcoma)", "conditions": "dogs not infected by herpes simplex virus, PET"}, "[9]": {"test": "HPLC analysis of plasma samples for radiolabeled metabolites in dogs", "format": "in vivo", "conditions": "dog, FMAU over 90 minutes"}, "[10]": {"test": "Plasma clearance of [^11 C]FMAU or [^11 C]TdR after intravenous bolus in dogs (FIG. 1)", "format": "in vivo", "conditions": "dog; for plasma clearance: intravenous"}, "[11]": {"test": "Storage stability of compound 2", "format": "physicochemical", "conditions": "after flash chromatography, anhydrous conditions", "experimental": "After purification by flash chromatography compound 2 could be stored at room temperature for at least 10 months under anhydrous conditions. Its melting point was broad due to the fact that a mixture of four diastereomers were probably present. Treatment of compound 2 with n-butyllithium (2.5 equivalent) produced the dianion 3 in situ which was treated with either unlabeled or [^11 C]-methyl iodide to produce the methylated product 4. The major by-product in the methylation reaction was the dehalogenated compound 5. The ratio of the desired product to the by-product was 43:57, as determined by ^1 HNMR integration of the C6 hydrogen. Deprotection of the tetrahydropyranyl ether produced the desired compound FMAU in 82% chemical yield."}, "[12]": {"conditions": "intravenous, through 24 hours, HPLC"}, "[13]": {"conditions": "intravenous bolus 20-25 mCi, 50-100 Ci/mmol, two components of approximately equal amplitudes"}}, "note": "Entries after “also recorded” stand apart in the source; their conditions may differ. Read-outs that look alike come from different tables or passages of the source."}
{"smiles": "O=c1[nH]c(=O)n([C@@H]2O[C@H](CO)[C@@H](O)[C@@H]2F)cc1I", "note": "[FIAU, 2'-Fluoro-5-iodo-1-β-D-arabinofuranosyluracil]", "values": [{"measurement": "dehalogenation / deiodination in vivo", "setting": "[1]", "value": "deiodination followed by methylation at the 5 position of the base also can occur prior to DNA incorporation"}]}
{"smiles": "Cc1cn([C@@H]2O[C@H](CO)[C@@H](O)[C@@H]2F)c(=O)[nH]c1=O", "note": "[FMAU, 2'-fluoro-5-methyl-1-β-D-arabinofuranosyluracil]", "values": [{"measurement": "glucuronide adduct of FMAU among trace metabolites", "setting": "[2]; urine, present in all three species", "value": "most abundant in dogs"}, {"measurement": "dose above which significant dose-limiting neurotoxicity developed", "setting": "[3]", "value": "above 8 mg/m^2×5 days"}, {"measurement": "IC50", "setting": "thymidine incorporation", "value": "8 to 28", "unit": "µM"}, {"measurement": "LD10", "setting": "[4]", "value": 25, "unit": "mg/m^2×10 days"}, {"measurement": "phosphorylation by mammalian kinases", "setting": "mammalian kinases", "value": "phosphorylated by mammalian kinases to levels approaching that of thymidine; also recorded: good substrate relative to thymidine"}, {"measurement": "phosphorylation by viral kinases", "setting": "viral kinases", "value": "good substrate relative to thymidine"}]}
{"smiles": "Cc1cn([C@@H]2O[C@H](CO)[C@@H](O)[C@@H]2F)[14c](=O)[nH]c1=O", "note": "[[2-^14 C]-FMAU]", "values": [{"measurement": "composition of urine radioactivity", "setting": "[2]; [12]", "value": "primarily of unchanged parent compound"}, {"measurement": "injected radioactivity cleared into the urine", "setting": "[2]; intravenous", "value": "Nearly all"}, {"measurement": "four minor metabolites, share of total urine radioactivity", "setting": "[2]; urine at 24 hr", "value": "less than 3%"}, {"measurement": "composition of urine radioactivity", "setting": "[5]; [12]", "value": "primarily of unchanged parent compound"}, {"measurement": "injected radioactivity cleared into the urine", "setting": "[5]; intravenous", "value": "Nearly all"}, {"measurement": "four minor metabolites, share of total urine radioactivity", "setting": "[5]; urine at 24 hr", "value": "< 15", "unit": "%"}, {"measurement": "accumulation in small intestine and spleen", "setting": "[6]", "value": "preferentially observed"}, {"measurement": "composition of urine radioactivity", "setting": "[7]; [12]", "value": "primarily of unchanged parent compound"}, {"measurement": "injected radioactivity cleared into the urine", "setting": "[7]; intravenous", "value": "Nearly all"}, {"measurement": "four minor metabolites, share of total urine radioactivity", "setting": "[7]; urine at 24 hr", "value": "< 5", "unit": "%"}, {"measurement": "accumulation in proliferating PC12 cells", "setting": "PC12 cells", "value": "preferentially observed"}, {"measurement": "incorporation into host DNA", "setting": "host DNA", "value": "substantial incorporation"}, {"measurement": "accumulation in proliferating Vero cells", "setting": "Vero cells", "value": "preferentially observed"}]}
{"smiles": "[11CH3]c1cn([C@@H]2O[C@H](CO)[C@@H](O)[C@@H]2F)c(=O)[nH]c1=O", "note": "[[^11 C]FMAU, 2'-fluoro-5-[^11 C-methyl]-1-β-D-arabinofuranosyluracil]", "values": [{"measurement": "localization in brain tumor / tumor visualization", "setting": "[8]", "value": "localized selectively within the proliferating cells of brain tumors, but not in normal brain cells; also recorded: the tumor was well visualized; also recorded: accumulated within brain tumor cells that were not infected with herpes simplex virus"}, {"measurement": "radiolabeled metabolites in plasma", "setting": "[9]", "value": "no radiolabeled metabolites"}, {"measurement": "plasma clearance", "setting": "[10]", "value": "rapid plasma clearance"}, {"measurement": "half time of first exponential component of plasma activity concentration curve", "setting": "[10]; [13]", "value": 2.4, "unit": "min"}, {"measurement": "half time of second exponential component of plasma activity concentration curve", "setting": "[10]; [13]", "value": 63, "unit": "min"}, {"measurement": "plasma clearance", "setting": "[10]; listed as [^11 C] FMAU", "value": "rapid clearance"}]}
{"smiles": "[11CH3]c1cn([C@H]2CC(O)[C@@H](CO)O2)c(=O)[nH]c1=O", "note": "(stereo partly shown) [[^11 C]TdR]", "values": [{"measurement": "radiolabeled metabolites in plasma", "setting": "[9]", "value": "progressive rise in radiolabeled metabolites"}, {"measurement": "plasma clearance", "setting": "[10]", "value": "rapid plasma clearance"}]}
{"smiles": "Nc1nc(=O)n([C@@H]2O[C@H](CO)[C@@H](O)[C@@H]2F)cc1[125I]", "note": "[[^125 I] labeled FIAC, [^125 I]2'-fluoro-5-iodo-1-β-D-arabinofuranosyl-cytosine]", "values": [{"measurement": "dehalogenation / deiodination in vivo", "setting": "[1]", "value": "extensive deiodination in vivo"}]}
{"smiles": "O=c1[nH]c(=O)n([C@@H]2O[C@H](COC3CCCCO3)[C@@H](OC3CCCCO3)[C@@H]2F)cc1I", "note": "(stereo partly drawn) [compound 2, 3', 5'-O-bis-(tetrahydropyranyl)-2'-fluoro-5-iodo-1-β-D-arabino-furanosyluracil]", "values": [{"measurement": "storage stability at room temperature", "setting": "[11]", "value": "at least 10 months"}]}
{"smiles": "O=c1[nH]c(=O)n([C@H]2C[C@H](O)[C@@H](CO)O2)cc1[131I]", "note": "[radioiodinated IUdR]", "values": [{"measurement": "dehalogenation / deiodination in vivo", "setting": "[1]", "value": "significant dehalogenation"}]}
